The values below come from US10626112B2, “Heterocyclic sulfonamide derivative and medicine comprising same” (EA PHARMA CO., LTD., priority 2014, dated 2020).

In general, IC50 refers to the concentration that gives 50% inhibition.

Chain of human TRPA1 (O75762 whole entry): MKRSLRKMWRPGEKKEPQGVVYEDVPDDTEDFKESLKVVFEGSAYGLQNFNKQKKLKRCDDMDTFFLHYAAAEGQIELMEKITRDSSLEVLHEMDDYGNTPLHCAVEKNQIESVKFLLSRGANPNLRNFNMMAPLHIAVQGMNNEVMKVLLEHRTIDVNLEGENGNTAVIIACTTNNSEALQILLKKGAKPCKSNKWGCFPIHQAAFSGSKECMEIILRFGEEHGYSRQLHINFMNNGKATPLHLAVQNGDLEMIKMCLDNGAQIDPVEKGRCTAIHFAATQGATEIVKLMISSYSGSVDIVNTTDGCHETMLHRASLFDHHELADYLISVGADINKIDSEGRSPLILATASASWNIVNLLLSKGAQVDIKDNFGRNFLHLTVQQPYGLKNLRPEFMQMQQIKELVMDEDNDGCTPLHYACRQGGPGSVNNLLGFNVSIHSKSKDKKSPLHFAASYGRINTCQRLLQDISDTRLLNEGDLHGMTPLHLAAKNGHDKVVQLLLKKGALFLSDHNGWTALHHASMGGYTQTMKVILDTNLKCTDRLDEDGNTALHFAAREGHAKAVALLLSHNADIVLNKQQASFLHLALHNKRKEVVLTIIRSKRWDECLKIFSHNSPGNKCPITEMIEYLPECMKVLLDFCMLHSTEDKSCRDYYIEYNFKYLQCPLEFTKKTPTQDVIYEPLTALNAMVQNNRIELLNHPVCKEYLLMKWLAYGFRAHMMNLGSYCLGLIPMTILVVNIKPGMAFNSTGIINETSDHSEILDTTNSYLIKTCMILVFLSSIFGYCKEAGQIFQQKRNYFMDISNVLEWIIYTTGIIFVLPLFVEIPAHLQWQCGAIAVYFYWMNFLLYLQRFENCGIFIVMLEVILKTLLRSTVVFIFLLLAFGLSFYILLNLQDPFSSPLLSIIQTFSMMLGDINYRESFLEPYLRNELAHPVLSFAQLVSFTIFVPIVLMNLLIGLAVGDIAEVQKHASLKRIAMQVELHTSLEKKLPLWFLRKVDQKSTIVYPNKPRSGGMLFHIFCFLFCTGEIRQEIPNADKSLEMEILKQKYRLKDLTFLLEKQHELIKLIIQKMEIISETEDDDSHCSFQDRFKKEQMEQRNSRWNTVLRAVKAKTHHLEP

The assay has as its target human TRPA1 (Homo sapiens (Human), UniProt O75762). As to the kind of experiment: Measurement of TRPA1 antagonist activity (1): intracellular calcium increase. The format is cell-based. As to conditions: 293T cells transfected with human TRPA1 expression plasmid; allylisothiocyanate 20 μM stimulation; intracellular calcium fluorescence; read-out: hTRPA1 IC50. An excerpt: Measurement of TRPA1 Antagonist Activity (1)
Human TRPA1 Expression Plasmid
As cDNA encoding human TRPA1 (GenBank accession No. […]), a commercially available product was purchased (manufactured by Kazusa DNA Research Institute, clone No.: pFN21AB7348, item No.: FHC07217). Using this as a template, full-length human TRPA1 gene was amplified using the primer sequences shown below, by reaction using DNA polymerase (manufactured by Stratagene, trade name: PfuUltra High-Fidelity DNA Polymerase).
A recognition site (underlined) of restriction enzyme HindIII was added to the 5′ side, and XbaI site (underlined) was added to the 3′ side, and GTT of the template sequence was changed to termination codon TAG (bold). The obtained double stranded DNA was enzyme-digested with HindIII and XbaI, and introduced into the multicloning site of expression plasmid pcDNA3.1/zeo(+) (manufactured by Invitrogen) to construct a human TRPA1 expression plasmid.
Human embryonic kidney-derived 293T cells were cultured in Dulbecco's Modified Eagle Medium containing 10% fetal bovine serum, 10 unit penicillin, and 10 μg streptomycin, plated on a petri dish having a diameter of 10 cm at 3×10^6 cells, and cultured for 24 hr in a CO2 incubator. A reduced serum medium (manufactured by Invitrogen, trade name: OPTI-MEM, 600 μL), a gene transfer reagent (manufactured by Mirus Bio, trade name: Mirus TransIT-293, 18 μL), and human TRPA1 expression plasmid (6 μg) were mixed, the total amount of the mixture was added to the cells on the petri dish to allow for gene transfer. The cells were recovered about for 8 hr later, plated on a poly-D-lysine coated 384 well black/clear bottom plate at 12,000 cells/well, and cultured overnight.
Measurement of Intracellular Calcium Increase
The 384 well plate was recovered, and the medium was removed. A calcium-bonded fluorescent indicator (manufactured by Molecular Device, trade name: Calcium4 Assay Kit, 38 μL) dissolved in assay buffer (1×HBSS, 20 mM HEPES, pH 7.2) was added, and the cells were stained in a CO2 incubator for 1 hr. The cells were taken out at room temperature, stood for not less than 15 min, a test substance (10 μL) was added by a platereader FDSS7000 (Hamamatsu Photonics K.K.) equipped with a 384ch dispenser. After 10 min, allylisothiocyanate (12 μL) was further added at a final concentration of 20 μM, and changes in the relative fluorescence intensity after addition of allylisothiocyanate were measured for 5 min.
Test Substance Preparation
The test substance was dissolved in dimethyl sulfoxide and serially diluted with an assay buffer containing 0.1% bovine serum albumin (1×HBSS, 20 mM HEPES, pH 7.2) to a 4.8-fold concentration of the evaluation concentration. Allylisothiocyanate, which is a known TRPA1 activator, was dissolved in dimethyl sulfoxide to 100 mM, and further diluted 5-fold (100 μM) of the final concentration, like the test substance.
Calculation of Antagonist Activity
Under the test substance-free conditions, the maximum variation range of the fluorescence intensity before and after allylisothiocyanate stimulation was defined to be 100% activity rate, and the variation range before and after buffer stimulation was defined as 0% activity rate. The activity rate on addition of the test substance was determined, and the numerical value obtained by subtracting the activity rate from 100 was defined to be an inhibitory rate. IC50, which is the concentration of the test substance necessary for reaching the 50% inhibitory rate, was calculated from the sigmoid approximate curve by a spreadsheet software Excel-Fit.
(A change in cytosolic calcium serves as a functional read-out for many receptors and channels.)
With `O=C(NCc1cc(-c2ccc(C(F)(F)F)cn2)ccn1)[C@@H]1c2ccccc2CN1S(=O)(=O)c1cc2cc(F)ccc2o1` (racemic) [Example 264, (rac)-2-(5-fluorobenzofuran-2-yl)sulfonyl-N-[[4-[5-(trifluoromethyl)-2-pyridyl]-2-pyridyl]methyl]isoindoline-1-carboxamide], the half-maximal inhibitory concentration (IC50) was 12 nM.

As to `N#Cc1ccc(COc2cccc(CNC(=O)[C@@H]3CCCN3S(=O)(=O)c3cc4ccccc4o3)c2)cc1` [Example 1, (2S)-1-(benzofuran-2-ylsulfonyl)-N-[[3-[(4-cyanophenyl)methoxy]phenyl]methyl]pyrrolidine-2-carboxamide], the 50% inhibitory concentration (IC50) is 3 nM.

With `N#Cc1cccc(COc2cccc(CNC(=O)[C@@H]3CCCN3S(=O)(=O)c3cc4ccccc4o3)c2)c1` [Example 2, (2S)-1-(benzofuran-2-ylsulfonyl)-N-[[3-[(3-cyanophenyl)methoxy]phenyl]methyl]pyrrolidine-2-carboxamide], the IC50 amounted to 7.9 nM.

Consider `O=C(NCc1cccc(OCc2cccnc2)c1)[C@@H]1CCCN1S(=O)(=O)c1cc2ccccc2o1` [Example 3, (2S)-1-(benzofuran-2-ylsulfonyl)-N-[[3-(3-pyridylmethoxy)phenyl]methyl]pyrrolidine-2-carboxamide], for which the IC50 is 72 nM.

For the molecule `O=C(NCc1cccc(OCc2ccco2)c1)[C@@H]1CCCN1S(=O)(=O)c1cc2ccccc2o1` [Example 4, (2S)-1-(benzofuran-2-ylsulfonyl)-N-[[3-(2-furylmethoxy)phenyl]methyl]pyrrolidine-2-carboxamide], the half-maximal inhibitory concentration (IC50) was found to be 23 nM.

In the case of `O=C(NCc1cccc(OCc2cccs2)c1)[C@@H]1CCCN1S(=O)(=O)c1cc2ccccc2o1` [Example 5, (2S)-1-(benzofuran-2-ylsulfonyl)-N-[[3-(2-thienylmethoxy)phenyl]methyl]pyrrolidine-2-carboxamide], the IC50 turned out to be 12 nM.

Consider `O=C(NCc1cccc(OCc2ccsc2)c1)[C@@H]1CCCN1S(=O)(=O)c1cc2ccccc2o1` [Example 6, (2S)-1-(benzofuran-2-ylsulfonyl)-N-[[3-(3-thienylmethoxy)phenyl]methyl]pyrrolidine-2-carboxamide], for which the IC50 stood at 7.5 nM.

As to `O=C(NCc1cccc(OCc2ccnc(C(F)(F)F)c2)c1)[C@@H]1CCCN1S(=O)(=O)c1cc2ccccc2o1` [Example 7], the IC50 was 5.4 nM.

Regarding `O=C(NCc1cccc(OCc2ccc(C(F)(F)F)nc2)c1)[C@@H]1CCCN1S(=O)(=O)c1cc2ccccc2o1` [Example 8, (2S)-1-(benzofuran-2-ylsulfonyl)-N-[[3-[[6-(trifluoromethyl)-3-pyridyl]methoxy]phenyl]-methyl]pyrrolidine-2-carboxamide], the IC50 was determined as 6.2 nM.

With `O=C(NCc1cccc(OCc2cncc(C(F)(F)F)c2)c1)[C@@H]1CCCN1S(=O)(=O)c1cc2ccccc2o1` [Example 9, (2S)-1-(benzofuran-2-ylsulfonyl)-N-[[3-[[5-(trifluoromethyl)-3-pyridyl]methoxy]phenyl]-methyl]pyrrolidine-2-carboxamide], the IC50 was found to be 7.6 nM.

On to `O=C(NCc1cccc(OCc2cncc(Cl)c2)c1)[C@@H]1CCCN1S(=O)(=O)c1cc2ccccc2o1` [Example 10, (2S)-1-(benzofuran-2-ylsulfonyl)-N-[[3-[(5-chloro-3-pyridyl)methoxy]-phenyl]methyl]-pyrrolidine-2-carboxamide], for which the IC50 is 10 nM.

For the molecule `N#Cc1ccc(COc2cccc(CNC(=O)[C@@H]3CCCN3S(=O)(=O)c3cc4cc(F)ccc4o3)c2)cc1` [Example 11, (2S)-N-[[3-[(4-cyanophenyl)methoxy]phenyl]methyl]-1-(5-fluorobenzofuran-2-yl)sulfonyl-pyrrolidine-2-carboxamide], the IC50 was determined as 1 nM.

Regarding `CN(C)c1cccc(COc2cccc(CNC(=O)[C@@H]3CCCN3S(=O)(=O)c3cc4cc(F)ccc4o3)c2)c1` [Example 12, (2S)-N-[[3-[[3-(dimethylamino)phenyl]methoxy]phenyl]-methyl]-1-(5-fluorobenzofuran-2-yl)sulfonyl-pyrrolidine-2-carboxamide], the IC50 was determined as 8.1 nM.
